This note sets out measurements from publication PMC5430895 (Scientific Reports, 2017).

Structures are written as SMILES.

One data set deals with T1, hOCT3 (Homo sapiens, UniProt O75751).
T1 sequence (O75751 1-556): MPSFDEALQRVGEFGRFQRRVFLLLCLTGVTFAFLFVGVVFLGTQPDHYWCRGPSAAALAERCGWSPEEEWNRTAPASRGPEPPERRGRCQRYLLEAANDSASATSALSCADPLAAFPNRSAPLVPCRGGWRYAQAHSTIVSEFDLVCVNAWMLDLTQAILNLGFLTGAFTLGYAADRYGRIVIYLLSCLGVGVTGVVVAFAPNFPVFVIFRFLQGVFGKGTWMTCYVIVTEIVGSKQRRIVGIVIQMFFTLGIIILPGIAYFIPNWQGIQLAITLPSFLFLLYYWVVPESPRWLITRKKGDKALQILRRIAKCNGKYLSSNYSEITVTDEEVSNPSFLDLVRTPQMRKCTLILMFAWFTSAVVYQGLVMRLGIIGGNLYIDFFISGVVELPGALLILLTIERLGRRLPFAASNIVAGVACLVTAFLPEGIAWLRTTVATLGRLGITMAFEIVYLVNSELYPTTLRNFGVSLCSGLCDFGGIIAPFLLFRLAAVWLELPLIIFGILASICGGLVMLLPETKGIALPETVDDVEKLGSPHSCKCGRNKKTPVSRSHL
Kind of data set: Saracatinib uptake in hOCT3-overexpressing HEK293 cells (HPLC-UV). The conditions noted are these: hOCT3-HEK293, 10 µM saracatinib, 10 min, difference of accumulation at 4 °C and 37 °C.

For a further data set, the target named is T2, hOCTN1 (Homo sapiens, UniProt Q9H015).
T2 sequence (Q9H015 1-551): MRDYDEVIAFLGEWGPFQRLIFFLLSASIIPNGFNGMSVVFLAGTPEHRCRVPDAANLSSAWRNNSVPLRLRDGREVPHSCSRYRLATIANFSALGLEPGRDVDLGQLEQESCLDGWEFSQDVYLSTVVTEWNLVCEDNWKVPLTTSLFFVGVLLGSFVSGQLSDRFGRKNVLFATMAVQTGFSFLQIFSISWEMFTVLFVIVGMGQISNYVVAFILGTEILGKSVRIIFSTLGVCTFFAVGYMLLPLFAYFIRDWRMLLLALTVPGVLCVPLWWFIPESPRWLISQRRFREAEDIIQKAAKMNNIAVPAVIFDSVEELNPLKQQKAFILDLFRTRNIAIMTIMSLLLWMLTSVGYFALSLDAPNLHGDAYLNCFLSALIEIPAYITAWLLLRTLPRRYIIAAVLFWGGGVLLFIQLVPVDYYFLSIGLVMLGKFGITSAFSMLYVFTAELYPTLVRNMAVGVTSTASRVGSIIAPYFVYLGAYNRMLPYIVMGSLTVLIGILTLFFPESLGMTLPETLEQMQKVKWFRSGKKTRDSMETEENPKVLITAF
Kind of data set: Saracatinib uptake in RASF after hOCTN1 siRNA knockdown. Type of data set: in vitro ADME. Further details: expressed in transfected cells; host or cells: HEK293, expression induced with 1 mg/l doxycycline. The conditions noted are these: RASF 24 h post-transfection with hOCTN1 siRNA.

The next data set concerns the target T3, hMATE1 (Homo sapiens, UniProt Q96FL8).
T3 sequence (Q96FL8 1-570): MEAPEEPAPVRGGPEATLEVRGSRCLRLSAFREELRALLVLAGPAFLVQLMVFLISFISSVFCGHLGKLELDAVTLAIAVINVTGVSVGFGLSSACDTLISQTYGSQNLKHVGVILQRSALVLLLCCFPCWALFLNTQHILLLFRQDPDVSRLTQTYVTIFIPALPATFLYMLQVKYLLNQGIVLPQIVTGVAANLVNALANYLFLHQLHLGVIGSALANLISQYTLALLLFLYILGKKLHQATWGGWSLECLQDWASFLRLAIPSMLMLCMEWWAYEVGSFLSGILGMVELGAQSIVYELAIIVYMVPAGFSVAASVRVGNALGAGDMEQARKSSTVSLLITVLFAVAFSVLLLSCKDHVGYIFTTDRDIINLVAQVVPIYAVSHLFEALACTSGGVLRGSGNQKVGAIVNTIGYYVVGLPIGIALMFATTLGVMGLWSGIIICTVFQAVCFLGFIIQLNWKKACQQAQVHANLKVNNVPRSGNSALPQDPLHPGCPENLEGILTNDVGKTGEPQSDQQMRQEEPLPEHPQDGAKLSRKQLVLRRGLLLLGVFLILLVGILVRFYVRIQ
The data set can be described thus: Saracatinib uptake in hMATE1-expressing HEK293 cells (HPLC-UV). The conditions noted are these: hMATE1-HEK293, 10 µM saracatinib, 10 min; not significantly different from WT.

The next data set has as its target T4, hOCT1 (Homo sapiens, UniProt O15245).
T4 sequence (O15245 1-554): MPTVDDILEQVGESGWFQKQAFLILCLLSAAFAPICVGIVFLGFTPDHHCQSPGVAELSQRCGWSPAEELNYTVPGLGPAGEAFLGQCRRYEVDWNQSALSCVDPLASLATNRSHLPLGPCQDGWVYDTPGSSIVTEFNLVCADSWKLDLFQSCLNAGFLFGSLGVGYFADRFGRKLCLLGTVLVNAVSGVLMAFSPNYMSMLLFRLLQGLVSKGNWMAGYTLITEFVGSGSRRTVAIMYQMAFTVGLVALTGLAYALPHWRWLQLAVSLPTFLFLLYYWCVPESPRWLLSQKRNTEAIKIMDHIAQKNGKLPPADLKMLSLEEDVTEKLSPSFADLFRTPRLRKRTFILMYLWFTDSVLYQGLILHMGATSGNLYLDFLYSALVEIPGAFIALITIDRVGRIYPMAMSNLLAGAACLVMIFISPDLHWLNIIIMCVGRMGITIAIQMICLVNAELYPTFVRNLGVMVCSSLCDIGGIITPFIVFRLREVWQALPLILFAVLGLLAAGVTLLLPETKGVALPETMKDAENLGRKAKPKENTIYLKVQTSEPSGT
Kind of data set: Inhibition of ASP+ uptake in hOCT1-HEK293 cells (apparent affinity). The class given is cell-based. Further details: expressed in transfected cells; host or cells: HEK293. The conditions noted are these: hOCT1-HEK293, ASP+ 1 µM.

As usually defined, the IC50 is the concentration at which inhibition is half-maximal. As for `CN1CCN(CCOc2cc(OC3CCOCC3)c3c(Nc4c(Cl)ccc5c4OCO5)ncnc3c2)CC1` [saracatinib, N-(5-chloro-1,3-benzodioxol-4-yl)-7-[2-(4-methylpiperazin-1-yl)ethoxy]-5-(tetrahydro-2H-pyran-4-yloxy)quinazolin-4-amine], at hOCT3, the “saracatinib accumulation (specific uptake)” value worked out at 5.7 ± 0.1 nmol/mg protein. Further, at hOCTN1, the uptake of saracatinib is on record as 2.6 ± 0.8 nmol/mg protein and the “uptake of saracatinib, % remaining versus scramble siRNA” value is 26%. Also, at hMATE1, the “saracatinib accumulation (specific uptake)” value was 2.3 ± 0.7 nmol/mg protein. The IC50 on hOCT1 came to 57 µM.
